Measured values published in patent US9456992B2 (XSPRAY MICROPARTICLES AB, priority 2012, dated 2016).
Counter-ions that a name gives are not always drawn.

Assay: Dissolution measurement assay (apparent solubility, non-sink) in FeSSIF solution (pH 5)
Format: physicochemical
Description: The medium was prepared in accordance with the manufacturer's instructions. The amount of powder added depends on the wished “total PKI concentration”. […] For other experiments, the drug load was first estimated by HPLC and the amount of powder to obtain the drug concentration was calculated.
Typically, the powder was added in a 8 mL glass bottle and 7 mL of solution was added (typically FaSSIF, FeSSIF or SGF). The glass bottle was put on a shaker (approximately 1 rotation per minute) for dissolution. Samples of 500 μl where taken after different times, and subsequently centrifuged at approximately 15000 g for 3 minutes. The resulting supernatant was then analyzed by HPLC (C18 column Eclipse, 4.6 mm×15 cm, 1 mL/min, detection at 254-400 nM. Generally samples were taken after 5, 30 and 90 min and eventually 150 min.
The experiments were carried out by measuring concentration of solubilized PKI (mg/L) after 5, 30 and 90 minutes dissolution in a solution at about pH 6.5, namely FaSSIF (Fasted State Simulated Intestinal Fluid). Further, experiments were carried out in an alternative solution at about pH 5, namely FeSSIF (Fed State Simulated Intestinal Fluid). Samples of the solution were taken at various time intervals and the amount of protein kinase inhibitor was measured by the dissolution measurement assay described above.
The experiments were carried out by measuring concentration of PKI (mg/L) after 5, 30 and 90 minutes dissolution in a solution at about pH 6.5, namely FaSSIF (Fasted State Simulated Intestinal Fluid). Further, experiments were carried out in an alternative solution at about pH 5, namely FeSSIF (Fed State Simulated Intestinal Fluid). Samples of the solution were taken at various time intervals and the amount of PKI was measured by the dissolution measurement assay described above.

| % solubilized 30 min. (nilotinib HCl, after 30 minutes dissolution) [%] | % solubilized 30 min. (erlotinib HCl, 30 min dissolution) [%] | AUC/ 90 min. (erlotinib HCl, AUC during 90 min dissolution) [Mg/min/L] | Compound |
| --- | --- | --- | --- |
| 0.18 | – | – | Cc1cn(-c2cc(NC(=O)c3ccc(C)c(Nc4nccc(-c5cccnc5)n4)c3)cc(C(F)(F)F)c2)cn1 [Exp 41, Nilotinib HCl] |
| – | 19.0 | 16303 | C#Cc1cccc(Nc2ncnc3cc(OCCOC)c(OCCOC)cc23)c1 [Exp 69, Erlotinib HCl] |
